Reference: ChEMBL document CHEMBL5550133, “Update on the development of TGR5 agonists for human diseases” (Eur J Med Chem, 2024)
In brackets after ≈: the same amount, converted by molar mass.

Assays:
Cytochrome P450 2C9 = Cytochrome P450 2C9 (Homo sapiens, UniProt P11712); experiment: Inhibition of CYP2C9 (unknown origin); assay type: ADME
[1] = Aqueous solubility of compound; assay type: physicochemical; details: aqueous (not further specified)
Cytochrome P450 3A4 = Cytochrome P450 3A4 (Homo sapiens, UniProt P08684); experiment: Inhibition of CYP3A4 (unknown origin); assay type: ADME
Cytochrome P450 3A4, sequence (P08684 whole entry): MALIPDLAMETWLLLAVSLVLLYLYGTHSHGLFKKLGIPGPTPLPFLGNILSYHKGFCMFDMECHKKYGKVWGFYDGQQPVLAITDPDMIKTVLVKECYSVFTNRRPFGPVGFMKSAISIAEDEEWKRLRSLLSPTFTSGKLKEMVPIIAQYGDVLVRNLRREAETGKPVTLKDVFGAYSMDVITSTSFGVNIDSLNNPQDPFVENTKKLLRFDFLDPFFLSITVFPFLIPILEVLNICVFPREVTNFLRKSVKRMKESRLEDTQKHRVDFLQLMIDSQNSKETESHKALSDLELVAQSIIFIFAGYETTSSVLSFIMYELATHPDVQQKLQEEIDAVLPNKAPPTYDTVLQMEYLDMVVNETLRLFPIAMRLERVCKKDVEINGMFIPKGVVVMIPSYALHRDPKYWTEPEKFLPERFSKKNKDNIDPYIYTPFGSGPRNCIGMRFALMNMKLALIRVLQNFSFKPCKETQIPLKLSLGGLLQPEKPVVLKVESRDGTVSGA

[2] = target: T1, G-protein coupled bile acid receptor 1 (Homo sapiens) (UniProt Q8TDU6); experiment: Agonist activity at TGR5 in human NCI-H716 cells assessed as increase in GLP-1 secretion at 5 uM measured for 60 mins by SEAP reporter gene based assay relative to control; assay type: functional, cell-based; details: filed as agonist
T1 sequence (whole entry): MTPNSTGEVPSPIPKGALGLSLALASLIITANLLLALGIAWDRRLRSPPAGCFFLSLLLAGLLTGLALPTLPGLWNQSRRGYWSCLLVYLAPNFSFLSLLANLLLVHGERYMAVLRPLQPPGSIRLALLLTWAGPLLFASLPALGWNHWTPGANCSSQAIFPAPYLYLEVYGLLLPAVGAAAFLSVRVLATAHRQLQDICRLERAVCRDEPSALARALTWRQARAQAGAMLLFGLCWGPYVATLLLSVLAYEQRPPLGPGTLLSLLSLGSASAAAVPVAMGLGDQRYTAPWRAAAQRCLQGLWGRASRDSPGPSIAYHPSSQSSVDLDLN

[3] = target: T2, G-protein coupled bile acid receptor 1 (Mus musculus, UniProt Q80SS6); experiment: Agonist activity at mouse TGR5 receptor expressed in HEK293 cells assessed as activation of intracellular cAMP production incubated for 2 hrs by luciferase reporter gene assay; assay type: functional, cell-based
T2 sequence (Q80SS6 whole entry): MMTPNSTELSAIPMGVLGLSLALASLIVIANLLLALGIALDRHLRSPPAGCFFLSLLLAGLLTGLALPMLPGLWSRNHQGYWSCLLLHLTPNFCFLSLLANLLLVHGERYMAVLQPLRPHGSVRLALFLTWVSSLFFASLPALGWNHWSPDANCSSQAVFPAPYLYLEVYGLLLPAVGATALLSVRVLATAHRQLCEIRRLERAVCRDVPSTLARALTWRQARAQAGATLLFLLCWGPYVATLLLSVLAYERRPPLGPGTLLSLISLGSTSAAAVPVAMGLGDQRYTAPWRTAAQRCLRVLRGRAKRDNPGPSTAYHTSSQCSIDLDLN

[4] = target: T3, G-protein coupled bile acid receptor 1 (Homo sapiens, UniProt Q8TDU6); experiment: Agonist activity at TGR5 receptor in human NCI-H716 cells assessed as activation of intracellular cAMP production incubated for 1 hr by TR-FRET assay; assay type: functional, cell-based
T3 sequence (Q8TDU6 whole entry): T1 sequence (whole entry)

[5] = target: CYP450 (isoform not specified) (Homo sapiens, UniProt P04798+P05177+P05181+P08684+P10632+P10635+P11509+P11712+P13584+P20813+P20815+P20853+P24462+P24903+P33260+P33261+P51589+P78329+P98187+Q02928+Q08477+Q16678+Q16696+Q5TCH4+Q6VVX0+Q7Z449+Q8TAV3+Q96SQ9+Q9HB55); experiment: Inhibition of CYP450 (unknown origin); assay type: ADME, protein assay
[6] = target: T3, G-protein coupled bile acid receptor 1; experiment: Agonist activity at human TGR5; assay type: functional
[7] = target: T2, G-protein coupled bile acid receptor 1; experiment: Agonist activity at mouse TGR5 receptor; assay type: functional
[8] = Oral bioavailability in mouse at 2 mg/kg; assay type: ADME, organism-based; details: in vivo
[9] = target: T3, G-protein coupled bile acid receptor 1; experiment: Agonist activity at TGR5 (unknown origin) expressed in HEK293 cells; assay type: functional, cell-based
[10] = Clearance in human liver microsomes; assay type: ADME, Microsome; details: read-out: CLH
[11] = target: T3, G-protein coupled bile acid receptor 1; experiment: Agonist activity at TGR5 (unknown origin) in CHO-K1 cells; assay type: functional, cell-based
[12] = target: T3, G-protein coupled bile acid receptor 1; experiment: Agonist activity at TGR5 in HEK293 cells; assay type: functional, cell-based
[13] = target: T3, G-protein coupled bile acid receptor 1; experiment: Agonist activity at TGR5 (unknown origin); assay type: functional

Cytochrome P450 2C9, sequence (P11712 whole entry): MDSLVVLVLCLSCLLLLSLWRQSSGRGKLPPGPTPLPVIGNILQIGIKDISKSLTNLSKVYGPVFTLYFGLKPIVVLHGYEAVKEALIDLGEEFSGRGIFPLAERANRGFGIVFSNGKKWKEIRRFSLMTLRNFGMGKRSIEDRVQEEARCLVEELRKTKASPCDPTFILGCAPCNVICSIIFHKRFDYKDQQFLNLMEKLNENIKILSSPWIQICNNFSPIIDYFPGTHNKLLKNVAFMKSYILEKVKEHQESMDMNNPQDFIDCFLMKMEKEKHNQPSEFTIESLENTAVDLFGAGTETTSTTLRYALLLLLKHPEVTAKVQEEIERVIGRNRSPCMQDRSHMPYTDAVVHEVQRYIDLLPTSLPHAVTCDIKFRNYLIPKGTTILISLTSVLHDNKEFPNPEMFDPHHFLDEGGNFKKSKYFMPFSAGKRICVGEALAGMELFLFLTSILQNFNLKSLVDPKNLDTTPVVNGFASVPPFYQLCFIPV

Question: For `O=C(c1cccnc1Oc1cccc(C(F)(F)F)c1)N1CCCc2ccccc21`, which IC50 (Cytochrome P450 2C9) is on record?
Answer: The IC50 was 2200 nM.

Question: And the solubility [1]?
Answer: Its solubility is 1 µg/mL (≈ 2.51 µM).

Question: And the IC50 (Cytochrome P450 3A4)?
Answer: Its IC50 is 5900 nM.

Question: Which Activity [2] does the source give for `COC(=O)NCc1cccc([C@H]2O[C@H](CC(=O)NCc3ccccc3F)C(=O)N(CC(C)(C)COC(C)=O)c3ccc(Cl)cc32)c1` here?
Answer: Its Activity is 165%.

Question: For `CN(CC[N+](C)(C)C)C(=O)CCc1cc(Cl)c(Oc2ccsc2C(=O)N2CCSc3ccccc32)cc1Cl`, which EC50 [3] is on record?
Answer: Its EC50 is 74 nM.

Question: For `COc1ccc(S(=O)(=O)N2CCCN(S(=O)(=O)c3ccc(OC)c(OC)c3)CC2)cc1OC` [SB-756050], which EC50 [4] is on record?
Answer: The EC50 was 1300 nM.

Question: For `CCc1onc(-c2ccccc2)c1C(=O)N(C)c1ccc(Cl)cc1`, which IC50 [5] is on record?
Answer: The IC50 was 251 nM.

Question: Which results are given for `CN(Cc1cnccc1-c1ccccc1F)C(C#N)c1cc(C(F)(F)F)cc(C(F)(F)F)c1` (stereo unspecified)?
Answer: EC50 [6]: 35 nM; EC50 [7]: 150 nM

Question: Which bioavailability [8] does the source give for `Cc1cc(/C(C[C@H](c2ccc(C3CCC(C(=O)O)CC3)cc2)c2ccccc2C)=N\O)ccn1` (stereo partly specified) here?
Answer: The bioavailability was 100%.

Question: For `O=C(c1cccnc1Oc1cc(Cl)ccc1Cl)N1CCN(C2COC2)c2ccccc21`, which EC50 [9] is on record?
Answer: Its EC50 is 10 nM.

Question: And the CLint scaled [10]?
Answer: The CLint scaled was 578 mL/min/kg.

Question: And the IC50 (Cytochrome P450 2C9)?
Answer: The IC50 was 8200 nM.

Question: What about the IC50 (Cytochrome P450 3A4) of the same molecule?
Answer: The IC50 was 300 nM.

Question: And the EC50 [7]?
Answer: Its EC50 is 520 nM.

Question: Which EC50 [7] does the source give for `Fc1cccc(F)c1-c1ccncc1CN1C(c2ccco2)=NO[C@@H]1c1cc(C(F)(F)F)cc(C(F)(F)F)c1Cl` here?
Answer: Its EC50 is 249 nM.

Question: Which EC50 [7] does the source give for `COc1cc(-n2c(N(C)c3ccc(OC)c(OC)c3)cnc2SCc2c(F)cc(OCCCS(=O)(=O)O)cc2F)ccc1F` here?
Answer: The EC50 was 0.5 nM.

Question: For `CC1(C)CC[C@]2(C(=O)O)CC[C@]3(C)C(=CC[C@@H]4[C@@]5(C)C[C@@H](O)[C@H](O)C(C)(C)[C@@H]5CC[C@]43C)[C@@H]2C1` [MASLINIC ACID], which EC50 [11] is on record?
Answer: Its EC50 is 3700 nM.

Question: Which EC50 [12] does the source give for `CC(C)[C@@H](CO)NC(=O)CC[C@@H](C)[C@H]1CC[C@H]2[C@@H]3[C@@H](OC=O)C[C@@H]4C[C@H](OC=O)CC[C@]4(C)[C@H]3CC[C@]12C` here?
Answer: The EC50 was 110 nM.

Question: Which Activity [2] does the source give for `CC(c1cc(C(F)(F)F)cc(C(F)(F)F)c1)N1CCOc2nccc(-c3ccccc3)c2C1` (stereo unspecified) here?
Answer: The Activity was 111%.

Question: Which results are given for `O=C(Nc1nnn[nH]1)c1cc(Cl)c(Oc2ncccc2C(=O)N2CCN(C3CC3)c3ccccc32)cc1Cl`?
Answer: EC50 [9]: 70 nM; CLint scaled [10]: 56 mL/min/kg; IC50 (Cytochrome P450 2C9): > 10000 nM; IC50 (Cytochrome P450 3A4): > 10000 nM

Question: With `C[C@H]1[C@H](C)CC[C@]2(C(=O)O)CC[C@]3(C)C(=CC[C@@H]4[C@@]5(C)C[C@@H](O)[C@H](O)C(C)(C)[C@@H]5CC[C@]43C)[C@H]12` [COROSOLIC ACID] as the molecule, how does the EC50 [11] read?
Answer: The EC50 was 500 nM.

Question: With `CO[C@H]1C[C@H]2[C@@H]([C@H](OC)C[C@@H]3C[C@H](O)CC[C@@]32C)[C@@H]2CC[C@H]([C@H](C)CCC(=O)N3CCCC3)[C@@]12C` as the molecule, how does the EC50 [13] read?
Answer: Its EC50 is 150 nM.
